{"source": "paper PMC7114863", "about": "(Journal of Hepatology, 2009)", "key": {"[1]": {"tested_on": "4′-Azidocytidine^res replicon", "assay": "Anti-HCV assay, 4′-azidocytidine resistant replicon"}, "[2]": {"tested_on": "HCV replicon in Huh 9-13 cells", "assay": "HCV replicon clearance-rebound assay", "format": "cell-based"}, "HuH6 replicons": {"tested_on": "HuH6 replicons", "assay": "Anti-HCV replicon assay in HuH6 cells", "conditions": "Hepatitis C virus, HuH-6, read-out: Anti-HCV activity EC50, HuH6"}, "[3]": {"tested_on": "J6/JFH chimeric HCV reporter virus (J6/JFH-Rluc2a-FLAG)", "assay": "Antiviral assay with HCVcc virus in Huh-Lunet cells", "format": "cell-based, HCV genotype 2a"}, "[4]": {"tested_on": "HCV subgenomic 1b replicon", "assay": "Anti-HCV subgenomic replicon assay", "format": "cell-based"}, "[5]": {"tested_on": "vesicular stomatitis virus (rhabdoviridae)", "format": "cell-based"}, "[6]": {"tested_on": "herpes simplex virus-1 (KOS strain, TK^− KOS ACV^r)", "assay": "Antiviral assay, herpes simplex virus-1", "format": "cell-based", "conditions": "data not shown"}, "[7]": {"assay": "Stability in basic and acidic solutions", "format": "physicochemical"}, "[8]": {"tested_on": "VX-950^res and BILN-2061^res replicon", "assay": "Anti-HCV assay, VX-950 and BILN-2061 double resistant replicon"}, "[9]": {"assay": "NADPH-dependent metabolic stability in rat hepatic microsomes", "format": "in vitro ADME"}, "reovirus-1 (reoviridae)": {"tested_on": "reovirus-1 (reoviridae)", "assay": "Antiviral assay, reovirus", "format": "cell-based", "conditions": "data not shown"}, "[10]": {"assay": "NADPH-dependent metabolic stability in dog hepatic microsomes", "format": "in vitro ADME"}, "[11]": {"tested_on": "influenza B virus (orthomyxoviridae)", "assay": "Antiviral assay, influenza B virus", "format": "cell-based", "conditions": "data not shown"}, "[12]": {"tested_on": "feline coronavirus (coronaviridae)", "assay": "Antiviral assay, feline coronavirus", "format": "cell-based", "conditions": "data not shown"}, "BILN-2061^res replicon": {"tested_on": "BILN-2061^res replicon", "assay": "Anti-HCV assay, BILN-2061 resistant replicon"}, "[13]": {"tested_on": "HIV-2 (ROD, retroviridae)", "assay": "Antiviral assay, HIV-2", "format": "cell-based", "conditions": "data not shown"}, "[14]": {"tested_on": "vaccinia virus (poxviridae)", "assay": "Antiviral assay, vaccinia virus", "format": "cell-based", "conditions": "data not shown"}, "[15]": {"tested_on": "influenza A virus (H1N1 and H3N2)", "assay": "Antiviral assay, influenza A virus", "format": "cell-based", "conditions": "data not shown"}, "[16]": {"tested_on": "Punta Toro virus (bunyaviridae)", "assay": "Antiviral assay, Punta Toro virus", "format": "cell-based", "conditions": "data not shown"}, "[17]": {"assay": "NADPH-dependent metabolic stability in human hepatic microsomes", "format": "in vitro ADME"}, "Cytostatic assay": {"assay": "Cytostatic assay", "format": "cell-based", "conditions": "human, HCV replicon-containing cells (Huh 5-2, HuH6 or Huh 9-13)"}, "[18]": {"tested_on": "respiratory syncytial virus (paramyxoviridae)", "assay": "Antiviral assay, respiratory syncytial virus", "format": "cell-based", "conditions": "data not shown"}, "[19]": {"tested_on": "bovine viral diarrhea virus (BVDV, flaviviridae)", "assay": "Antiviral assay with BVDV", "format": "cell-based"}, "GSK-4^res replicon": {"tested_on": "GSK-4^res replicon", "assay": "Anti-HCV assay, GSK-4 resistant replicon"}, "YFV-17D (flaviviridae)": {"tested_on": "YFV-17D (flaviviridae)", "format": "cell-based, yellow fever virus"}, "[20]": {"tested_on": "herpes simplex virus-2 (G strain, herpesviridae)", "assay": "Antiviral assay, herpes simplex virus-2", "format": "cell-based", "conditions": "data not shown"}, "2′-C-MeCyt^res replicon": {"tested_on": "2′-C-MeCyt^res replicon", "assay": "Anti-HCV assay, 2′-C-MeCyt resistant replicon"}, "[21]": {"tested_on": "coxsackie virus B4 (picornaviridae)", "assay": "Antiviral assay, coxsackie virus", "format": "cell-based", "conditions": "data not shown"}, "HIV-1 (IIIB)": {"tested_on": "HIV-1 (IIIB)", "assay": "Antiviral assay, HIV-1", "format": "cell-based", "conditions": "data not shown"}, "[22]": {"tested_on": "HuH6 replicon-containing cells", "assay": "Drug combinations in HuH6 cells", "format": "cell-based, HCV", "conditions": "checkerboard"}, "[23]": {"tested_on": "para-influenza-3 virus (paramyxoviridae)", "assay": "Antiviral assay, para-influenza virus", "format": "cell-based", "conditions": "data not shown"}, "[24]": {"tested_on": "sindbis virus (alphaviridae)", "assay": "Antiviral assay, sindbis virus", "format": "cell-based", "conditions": "data not shown"}, "[25]": {"conditions": "300 nM, Huh 9-13, data not shown"}}}
{"smiles": "Fc1cccc(-c2nc3ccn(Cc4cc(-c5ccc(Cl)cc5)no4)cc-3n2)c1F", "note": "[GS-327073, 5-[[3-(4-chlorophenyl)-5-isoxazolyl]methyl]-2-(2,3-difluorophenyl)-5H-imidazo[4,5-c]pyridine]", "values": [{"measurement": "activity against 4′-azidocytidine resistant replicons", "setting": "[1]", "value": "retained wild-type activity"}, {"measurement": "EC50", "setting": "[1]; Hepatitis C virus, read-out: EC50, 4′-Azidocytidine^res", "value": "0.0072 ± 0.0008", "unit": "µM"}, {"measurement": "fold resistance, 4′-Azidocytidine^res", "setting": "[1]; versus wild-type replicon", "value": "(3.6)"}, {"measurement": "clearance of replicon, drug alone", "setting": "[2]; 20 × EC50, Huh 9-13", "value": "failed to achieve clearance"}, {"measurement": "clearance of replicon, combination GS-327073 (5 × EC50) and VX-950 (5 × EC50)", "setting": "[2]; Huh 9-13", "value": "clearance of Huh 9-13 cells from their replicon following one passage"}, {"measurement": "passages until clearance of replicon RNA, GS-327073 (20 × EC50) with 2′-C-MeCyt (20 × EC50)", "setting": "[2]; Huh 9-13", "value": 2, "unit": "passages"}, {"measurement": "drug resistant replicon in cells surviving rebound conditions", "setting": "[2]; after treatment, addition of G418, data not shown", "value": "did not contain drug resistant replicon"}, {"measurement": "clearance of Huh 9-13 cells from their replicon, drug alone", "setting": "[2]; five times EC50, 3 passages", "value": "did not achieve complete clearance"}, {"measurement": "EC50", "setting": "HuH6 replicons", "value": "0.05 ± 0.02", "unit": "µM"}, {"measurement": "EC50", "setting": "[3]; Hepatitis C virus, 72 h, read-out: Anti-HCV activity EC50, J6/JFH", "value": "0.33 ± 0.14", "unit": "µM"}, {"measurement": "fold higher EC50 for HCV genotype 2a virus than for 1b replicon", "setting": "[3]; versus 1b replicon", "value": 100, "unit": "fold"}, {"measurement": "selectivity indices", "setting": "[4]; CC50/EC50", "value": "≥ 340"}, {"measurement": "EC50", "setting": "[4]; Hepatitis C virus, GETYPE1, read-out: mean EC50 values, HCV (genotype 1) subgenomic replicon replication", "value": "0.002 to 0.05", "unit": "µM"}, {"measurement": "activity against vesicular stomatitis virus", "setting": "[5]", "value": "inactive"}, {"measurement": "activity against herpes simplex virus 1", "setting": "[6]", "value": "inactive"}, {"measurement": "stability in acidic solution", "setting": "[7]; pH 2.2", "value": "remained stable"}, {"measurement": "stability in basic solution", "setting": "[7]; pH 7.3", "value": "remained stable"}, {"measurement": "activity against BILN-2061/VX-950 double resistant replicons", "setting": "[8]", "value": "retained wild-type activity"}, {"measurement": "fate of cells containing VX-950/BILN-2061^res replicon under G418 pressure", "setting": "[8]; [25]", "value": "died following only one passage"}, {"measurement": "fold resistance, VX-950^res and BILN-2061^res", "setting": "[8]; versus wild-type replicon", "value": "(2.0)"}, {"measurement": "microsomal half-time", "setting": "[9]; rat hepatic microsomes, NADPH-dependent", "value": 96, "unit": "min"}, {"measurement": "predicted hepatic clearance", "setting": "[9]; rat microsomes", "value": 10.5, "unit": "mL/min/kg"}, {"measurement": "activity against reovirus", "setting": "reovirus-1 (reoviridae)", "value": "inactive"}, {"measurement": "microsomal half-time", "setting": "[10]; dog hepatic microsomes, NADPH-dependent", "value": 88, "unit": "min"}, {"measurement": "predicted hepatic clearance", "setting": "[10]; dog microsomes", "value": 6, "unit": "mL/min/kg"}, {"measurement": "activity against influenza virus B", "setting": "[11]", "value": "inactive"}, {"measurement": "activity against feline coronavirus", "setting": "[12]", "value": "inactive"}, {"measurement": "activity against BILN-2061 resistant replicons", "setting": "BILN-2061^res replicon", "value": "retained wild-type activity"}, {"measurement": "EC50", "setting": "BILN-2061^res replicon; Hepatitis C virus, read-out: EC50, BILN-2061^res", "value": "0.009 ± 0.005", "unit": "µM"}, {"measurement": "fold resistance, BILN-2061^res", "setting": "BILN-2061^res replicon; versus wild-type replicon", "value": "(4.5)"}, {"measurement": "activity against human immunodeficiency virus 2", "setting": "[13]", "value": "inactive"}, {"measurement": "activity against vaccinia virus", "setting": "[14]", "value": "inactive"}, {"measurement": "activity against influenza virus A", "setting": "[15]", "value": "inactive"}, {"measurement": "activity against Punta Toro virus", "setting": "[16]", "value": "inactive"}, {"measurement": "microsomal half-time", "setting": "[17]; human hepatic microsomes, NADPH-dependent", "value": 236, "unit": "min"}, {"measurement": "predicted hepatic clearance", "setting": "[17]; human microsomes", "value": 2.5, "unit": "mL/min/kg"}, {"measurement": "CC50", "setting": "Cytostatic assay", "value": "≥ 17", "unit": "µM"}, {"measurement": "activity against respiratory syncitial virus", "setting": "[18]", "value": "inactive"}, {"measurement": "cross-resistance with BPIP in anti-BVDV assay", "setting": "[19]", "value": "cross-resistant"}, {"measurement": "fold less potent against BVDV than compound 1", "setting": "[19]; compared to compound 1", "value": "about 10 fold"}, {"measurement": "activity against GSK-4 resistant replicons", "setting": "GSK-4^res replicon", "value": "retained wild-type activity"}, {"measurement": "EC50", "setting": "GSK-4^res replicon; Hepatitis C virus, read-out: EC50, GSK-4^res", "value": "0.011 ± 0.001", "unit": "µM"}, {"measurement": "fold resistance, GSK-4^res", "setting": "GSK-4^res replicon; versus wild-type replicon", "value": "(5.5)"}, {"measurement": "activity against yellow fever virus (17D)", "setting": "YFV-17D (flaviviridae)", "value": "inactive"}, {"measurement": "activity against herpes simplex virus 2", "setting": "[20]", "value": "inactive"}, {"measurement": "activity against 2′-C-MeCyt resistant replicons", "setting": "2′-C-MeCyt^res replicon", "value": "retained wild-type activity"}, {"measurement": "fate of cells containing 2′-C-MeCyt^res replicon under G418 pressure", "setting": "2′-C-MeCyt^res replicon; [25]", "value": "died following only one passage"}, {"measurement": "EC50", "setting": "2′-C-MeCyt^res replicon; Hepatitis C virus, read-out: EC50, 2′-C-MeCyt^res", "value": "0.008 ± 0.006", "unit": "µM"}, {"measurement": "fold resistance, 2′-C-MeCyt^res", "setting": "2′-C-MeCyt^res replicon; versus wild-type replicon", "value": "(4.0)"}, {"measurement": "activity against coxsackie virus", "setting": "[21]", "value": "inactive"}, {"measurement": "activity against human immunodeficiency virus 1", "setting": "HIV-1 (IIIB)", "value": "inactive"}, {"measurement": "combined antiviral activity with 2′-C-MeCyt", "setting": "[22]", "value": "additive antiviral activity"}, {"measurement": "combined antiviral activity with IFNα 2b", "setting": "[22]", "value": "additive antiviral activity"}, {"measurement": "combined antiviral activity with VX-950", "setting": "[22]", "value": "additive antiviral activity"}, {"measurement": "combined antiviral activity with low concentrations of IFNα 2b", "setting": "[22]", "value": "slight synergistic effect"}, {"measurement": "combined antiviral activity with ribavirin", "setting": "[22]", "value": "additive antiviral activity"}, {"measurement": "activity against para-influenza virus", "setting": "[23]", "value": "inactive"}, {"measurement": "activity against sindbis virus", "setting": "[24]", "value": "inactive"}]}
